Laboratory results as given in publication PMC10562414, “GLP-1R signaling neighborhoods associate with the susceptibility to adverse drug reactions of incretin mimetics” (Nature Communications, 2023).

Test system: GLP-1R-expressing HEK293 cells + Dyngo-4A (phosphoproteome)
Test: Phosphoproteomics, GLP-1R-transfected cells with internalization inhibitor Dyngo-4A, 30 min
Type: cell-based, human
Conditions: 50 μM, 30 min preincubation
Experimental: P values were calculated by a two-sided unpaired t-test.
HEK293 cells (350,000 cells/mL) were transfected in suspension using 3 μg of linear PEI (MW 25,000) per 1 μg of plasmid DNA and seeded onto poly-D-lysine-coated 60 mm dishes at a density of 1,750,000 cells per dish. After a 24-h incubation, cells were washed twice with PBS and placed in starvation media (DMEM with penicillin/streptomycin). After a 48-h incubation, cells were washed twice with HBSS and maintained in the same buffer. […] Cell extracts were prepared as previously described[64]–[66]. In short, 200 μL of the lysis buffer preheated at 95 °C (4% sodium dodecyl sulfate in 50 mM Tris adjusted to pH 8.5) was added to the cells. The samples were then denatured at 95 °C for 10 min, placed on ice and then sonicated using a probe sonicator (3 sec on, 3 sec off pulse, 1 min, 30% amplitude) (Branson). Lysate protein concentration was determined using the Pierce bicinchoninic acid assay kit (Thermo Fisher Scientific) according to the manufacturer’s instructions. The lysates were reduced using 5 mM dithiothreitol for 1 h at room temperature and alkylated using 15 mM iodoacetamide for 1 h at room temperature in the dark. Proteins were precipitated and digested on beads using MagReSyn Amine magnetic beads (ReSyn Biosciences) according to the manufacturer’s instructions. Protein digestion was conducted overnight at 37 °C with lysyl endopeptidase (LysC, Wako) (1:150 LysC/protein, w/w) and trypsin (1:300 trypsin/protein, w/w). 20% TFA, 2 M glycolic acid in 80% ACN were added to the samples at a 1:1 ratio for phosphopeptide enrichment using MagReSyn TiO2 magnetic beads (ReSyn Biosciences) according to the manufacturer’s instructions. The enriched phosphopeptides were dried overnight in a SpeedVac, resuspended into 5% formic acid (FA), desalted using StageTip (Thermo Fisher Scientific) according to the manufacturer’s instructions and dried in a SpeedVac. The experiment was performed in biological triplicates.
All parameters and settings regarding the acquisition of the proteomics data can be found in Supplementary Data 11, 12. For data acquisition, the instrument was set to peptide mode, with a trapping pressure set as low (2mTorr). An EASY-Spray Source (Thermo Fisher Scientific) was used and the column temperature was maintained with the integrated, temperature-controlled heater at 55 °C throughout the experiment. For the data presented in Fig. 5d, the column was heated at 50 °C following the manufacturer’s instructions (IonOpticks).
Acquired raw files were converted to mzML format by MSConvert (version 3.0.21258)[67] applying peak picking of the mass spectra with the vendor-provided algorithm (Thermo Fisher Scientific). The mzML files were analyzed using the FragPipe GUI v18 for both library and DIA search. […] Trypsin with up to 2 missed cleavages was set as digestion enzyme, oxidation of methionine, acetylation of the N-terminus and phosphorylation on serine, threonine and tyrosine (maximal occurrence was set to three) were set as variable modifications. Carbamidomethylation of cysteine residues was set as a fixed modification. Peptide length was restricted to 7 to 50 amino acids, and 500 to 5000 Da. The precursor tolerance was set to ±20 ppm, fragment mass tolerance to 20 ppm and MSBooster was enabled. The resulting peptide-spectrum matches were adjusted to a 1% false discovery rate with Percolator[69] as part of the Philosopher toolkit (v4.4)[70] and converted to a spectra library. DIA files were analyzed by DIA-NN 1.8.1[71], [72] using the previously generated library and monitor-command mode. Peptide quantification was performed based on the fragment elution profiles from the MS2 level (area under the curve).
All further data processing was performed in R (version 4.2.1). Only phosphopeptides with a localization score of at least 0.75 were considered for further analysis. […]

## O=C(N/N=C/c1cc(O)c(O)cc1O)c1cc2ccccc2cc1O [Dyngo-4A]
  effect on magnitude of agonist-induced phosphorylation events: affected
